Laboratory results as given in PubChem BioAssay AID1963840 (Molecular Pharmacology Branch, DTP, NCI, 2024).
pIC50: −log10 of the molar value.

Test system: 695427-040-R-J1-PDC complex spheroid viability
Assay: Anticancer human tumor 695427-040-R-J1-PDC patient-derived colon adenocarcinoma cell line growth inhibition [POLQ]
Settings: for pIC50: curve of first compound; for viability, T/C: stronger effect = lower value
Method in brief: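 Growth inhibition in 3D: complex spheroids (tumor PDC, HUVEC, MSC) treated with POLQ inhibitor combinations; where Cmax unknown, highest tested concentration 10 microM, except SN-38 at 1 microM.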

[1] = second compound 0.0316 µM, first compound 0.0316 µM
[2] = second compound 0.0316 µM, first compound 0.1 µM
[3] = second compound 0.0316 µM, first compound 0.316 µM
[4] = second compound 0.0316 µM, first compound 1 µM
[5] = second compound 0.0316 µM, first compound 3.16 µM
[6] = second compound 0.0316 µM, first compound 10 µM
[7] = second compound 0.1 µM, first compound 0.0316 µM
[8] = second compound 0.1 µM, first compound 0.1 µM
[9] = second compound 0.1 µM, first compound 0.316 µM
[10] = second compound 0.1 µM, first compound 1 µM
[11] = second compound 0.1 µM, first compound 3.16 µM
[12] = second compound 0.1 µM, first compound 10 µM
[13] = second compound 0.316 µM, first compound 0.0316 µM
[14] = second compound 0.316 µM, first compound 0.1 µM
[15] = second compound 0.316 µM, first compound 0.316 µM
[16] = second compound 0.316 µM, first compound 1 µM
[17] = second compound 0.316 µM, first compound 3.16 µM
[18] = second compound 0.316 µM, first compound 10 µM
[19] = second compound 1 µM, first compound 0.0316 µM
[20] = second compound 1 µM, first compound 0.1 µM
[21] = second compound 1 µM, first compound 0.316 µM
[22] = second compound 1 µM, first compound 1 µM
[23] = second compound 1 µM, first compound 3.16 µM
[24] = second compound 1 µM, first compound 10 µM
[25] = second compound 3.16 µM, first compound 0.0316 µM
[26] = second compound 3.16 µM, first compound 0.1 µM
[27] = second compound 3.16 µM, first compound 0.316 µM
[28] = second compound 3.16 µM, first compound 1 µM
[29] = second compound 3.16 µM, first compound 3.16 µM
[30] = second compound 3.16 µM, first compound 10 µM
[31] = second compound 10 µM, first compound 0.0316 µM
[32] = second compound 10 µM, first compound 0.1 µM
[33] = second compound 10 µM, first compound 0.316 µM
[34] = second compound 10 µM, first compound 1 µM
[35] = second compound 10 µM, first compound 3.16 µM
[36] = second compound 10 µM, first compound 10 µM
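Further: spheroids exposed to compounds for seven days.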
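Wherever viability, T/C is given: 100% = DMSO vehicle control viability.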

## CNCc1ccc(-c2[nH]c3cc(F)cc4c3c2CCNC4=O)cc1 + COC1C(OC(N)=O)C(O)C(Oc2ccc3c(O)c(NC(=O)c4ccc(O)c(CC=C(C)C)c4)c(=O)oc3c2C)OC1(C)C
Second compound 0.0316 µM
  pIC50: < 5.00
Second compound 0.1 µM
  pIC50: < 5.00
Second compound 0.316 µM
  pIC50: < 5.00
Second compound 1 µM
  pIC50: < 5.00
Second compound 3.16 µM
  pIC50: < 5.00
Second compound 10 µM
  pIC50: < 5.00
[1]
  viability, T/C: 94.5%
[2]
  viability, T/C: 96.1%
[3]
  viability, T/C: 108%
[4]
  viability, T/C: 99.7%
[5]
  viability, T/C: 112%
[6]
  viability, T/C: 103%
[7]
  viability, T/C: 108%
[8]
  viability, T/C: 95.1%
[9]
  viability, T/C: 107%
[10]
  viability, T/C: 103%
[11]
  viability, T/C: 112%
[12]
  viability, T/C: 111%
[13]
  viability, T/C: 101%
[14]
  viability, T/C: 99.8%
[15]
  viability, T/C: 94.5%
[16]
  viability, T/C: 96.8%
[17]
  viability, T/C: 115%
[18]
  viability, T/C: 105%
[19]
  viability, T/C: 97.6%
[20]
  viability, T/C: 95%
[21]
  viability, T/C: 105%
[22]
  viability, T/C: 103%
[23]
  viability, T/C: 112%
[24]
  viability, T/C: 115%
[25]
  viability, T/C: 101%
[26]
  viability, T/C: 99.3%
[27]
  viability, T/C: 108%
[28]
  viability, T/C: 93.2%
[29]
  viability, T/C: 117%
[30]
  viability, T/C: 103%
[31]
  viability, T/C: 98.1%
[32]
  viability, T/C: 91.8%
[33]
  viability, T/C: 106%
[34]
  viability, T/C: 109%
[35]
  viability, T/C: 114%
[36]
  viability, T/C: 113%

## Cn1ncnc1[C@H]1c2n[nH]c(=O)c3cc(F)cc(c23)N[C@@H]1c1ccc(F)cc1 + COC1C(OC(N)=O)C(O)C(Oc2ccc3c(O)c(NC(=O)c4ccc(O)c(CC=C(C)C)c4)c(=O)oc3c2C)OC1(C)C
Second compound 0.0316 µM
  pIC50: < 7.00
Second compound 0.1 µM
  pIC50: < 7.00
Second compound 0.316 µM
  pIC50: < 7.00
Second compound 1 µM
  pIC50: < 7.00
Second compound 3.16 µM
  pIC50: < 7.00
Second compound 10 µM
  pIC50: < 7.00
Second compound 0.0316 µM, first compound 0.000316 µM
  viability, T/C: 92%
Second compound 0.0316 µM, first compound 0.001 µM
  viability, T/C: 96.6%
Second compound 0.0316 µM, first compound 0.00316 µM
  viability, T/C: 93.5%
Second compound 0.0316 µM, first compound 0.01 µM
  viability, T/C: 105%
[1]
  viability, T/C: 106%
[2]
  viability, T/C: 84.1%
Second compound 0.1 µM, first compound 0.000316 µM
  viability, T/C: 99.4%
Second compound 0.1 µM, first compound 0.001 µM
  viability, T/C: 93.3%
Second compound 0.1 µM, first compound 0.00316 µM
  viability, T/C: 107%
Second compound 0.1 µM, first compound 0.01 µM
  viability, T/C: 101%
[7]
  viability, T/C: 98.4%
[8]
  viability, T/C: 83.8%
Second compound 0.316 µM, first compound 0.000316 µM
  viability, T/C: 106%
Second compound 0.316 µM, first compound 0.001 µM
  viability, T/C: 101%
Second compound 0.316 µM, first compound 0.00316 µM
  viability, T/C: 98.4%
Second compound 0.316 µM, first compound 0.01 µM
  viability, T/C: 106%
[13]
  viability, T/C: 103%
[14]
  viability, T/C: 92.1%
Second compound 1 µM, first compound 0.000316 µM
  viability, T/C: 103%
Second compound 1 µM, first compound 0.001 µM
  viability, T/C: 101%
Second compound 1 µM, first compound 0.00316 µM
  viability, T/C: 96.3%
Second compound 1 µM, first compound 0.01 µM
  viability, T/C: 95.1%
[19]
  viability, T/C: 93.9%
[20]
  viability, T/C: 91%
Second compound 3.16 µM, first compound 0.000316 µM
  viability, T/C: 96.6%
Second compound 3.16 µM, first compound 0.001 µM
  viability, T/C: 90.9%
Second compound 3.16 µM, first compound 0.00316 µM
  viability, T/C: 90.9%
Second compound 3.16 µM, first compound 0.01 µM
  viability, T/C: 98.3%
[25]
  viability, T/C: 105%
[26]
  viability, T/C: 94.6%
Second compound 10 µM, first compound 0.000316 µM
  viability, T/C: 103%
Second compound 10 µM, first compound 0.001 µM
  viability, T/C: 99.6%
Second compound 10 µM, first compound 0.00316 µM
  viability, T/C: 99%
Second compound 10 µM, first compound 0.01 µM
  viability, T/C: 106%
[31]
  viability, T/C: 113%
[32]
  viability, T/C: 101%

## O=C(c1cc(Cc2n[nH]c(=O)c3ccccc23)ccc1F)N1CCN(C(=O)C2CC2)CC1 + COC1C(OC(N)=O)C(O)C(Oc2ccc3c(O)c(NC(=O)c4ccc(O)c(CC=C(C)C)c4)c(=O)oc3c2C)OC1(C)C
Second compound 0.0316 µM
  pIC50: < 5.00
Second compound 0.1 µM
  pIC50: < 5.00
Second compound 0.316 µM
  pIC50: < 5.00
Second compound 1 µM
  pIC50: < 5.00
Second compound 3.16 µM
  pIC50: < 5.00
Second compound 10 µM
  pIC50: < 5.00
[1]
  viability, T/C: 115%
[2]
  viability, T/C: 106%
[3]
  viability, T/C: 105%
[4]
  viability, T/C: 105%
[5]
  viability, T/C: 110%
[6]
  viability, T/C: 97.9%
[7]
  viability, T/C: 108%
[8]
  viability, T/C: 108%
[9]
  viability, T/C: 108%
[10]
  viability, T/C: 105%
[11]
  viability, T/C: 111%
[12]
  viability, T/C: 96.3%
[13]
  viability, T/C: 110%
[14]
  viability, T/C: 96.9%
[15]
  viability, T/C: 105%
[16]
  viability, T/C: 104%
[17]
  viability, T/C: 114%
[18]
  viability, T/C: 108%
[19]
  viability, T/C: 110%
[20]
  viability, T/C: 105%
[21]
  viability, T/C: 104%
[22]
  viability, T/C: 106%
[23]
  viability, T/C: 117%
[24]
  viability, T/C: 101%
[25]
  viability, T/C: 97.1%
[26]
  viability, T/C: 96.7%
[27]
  viability, T/C: 94.3%
[28]
  viability, T/C: 108%
[29]
  viability, T/C: 117%
[30]
  viability, T/C: 112%
[31]
  viability, T/C: 103%
[32]
  viability, T/C: 103%
[33]
  viability, T/C: 115%
[34]
  viability, T/C: 107%
[35]
  viability, T/C: 114%
[36]
  viability, T/C: 97%
